Measurements: patent publication US12441726B2, “Compounds and uses thereof” (Foghorn Therapeutics Inc., priority 2020, dated 2025)
Values belong to the molecule of their own block, whether it stands above or below them.

What was measured:
BRM = BRM (Homo sapiens, UniProt P51531); assay: ATPase catalytic activity assay (ADP-Glo), BRM; conditions: 30 nM BRM, 400 μM ATP; for IC50: BRM ATPase: IC50 (uM)
BRG-1 = BRG-1 (Homo sapiens, UniProt P51532); assay: ATPase catalytic activity assay (ADP-Glo), BRG-1; conditions: for Emax: 1 h, read-out: BRG1 Max % Inhibition, ADP-Glo, 30 nM BRG-1, 400 μM ATP
Chain of BRG-1 (P51532 whole entry): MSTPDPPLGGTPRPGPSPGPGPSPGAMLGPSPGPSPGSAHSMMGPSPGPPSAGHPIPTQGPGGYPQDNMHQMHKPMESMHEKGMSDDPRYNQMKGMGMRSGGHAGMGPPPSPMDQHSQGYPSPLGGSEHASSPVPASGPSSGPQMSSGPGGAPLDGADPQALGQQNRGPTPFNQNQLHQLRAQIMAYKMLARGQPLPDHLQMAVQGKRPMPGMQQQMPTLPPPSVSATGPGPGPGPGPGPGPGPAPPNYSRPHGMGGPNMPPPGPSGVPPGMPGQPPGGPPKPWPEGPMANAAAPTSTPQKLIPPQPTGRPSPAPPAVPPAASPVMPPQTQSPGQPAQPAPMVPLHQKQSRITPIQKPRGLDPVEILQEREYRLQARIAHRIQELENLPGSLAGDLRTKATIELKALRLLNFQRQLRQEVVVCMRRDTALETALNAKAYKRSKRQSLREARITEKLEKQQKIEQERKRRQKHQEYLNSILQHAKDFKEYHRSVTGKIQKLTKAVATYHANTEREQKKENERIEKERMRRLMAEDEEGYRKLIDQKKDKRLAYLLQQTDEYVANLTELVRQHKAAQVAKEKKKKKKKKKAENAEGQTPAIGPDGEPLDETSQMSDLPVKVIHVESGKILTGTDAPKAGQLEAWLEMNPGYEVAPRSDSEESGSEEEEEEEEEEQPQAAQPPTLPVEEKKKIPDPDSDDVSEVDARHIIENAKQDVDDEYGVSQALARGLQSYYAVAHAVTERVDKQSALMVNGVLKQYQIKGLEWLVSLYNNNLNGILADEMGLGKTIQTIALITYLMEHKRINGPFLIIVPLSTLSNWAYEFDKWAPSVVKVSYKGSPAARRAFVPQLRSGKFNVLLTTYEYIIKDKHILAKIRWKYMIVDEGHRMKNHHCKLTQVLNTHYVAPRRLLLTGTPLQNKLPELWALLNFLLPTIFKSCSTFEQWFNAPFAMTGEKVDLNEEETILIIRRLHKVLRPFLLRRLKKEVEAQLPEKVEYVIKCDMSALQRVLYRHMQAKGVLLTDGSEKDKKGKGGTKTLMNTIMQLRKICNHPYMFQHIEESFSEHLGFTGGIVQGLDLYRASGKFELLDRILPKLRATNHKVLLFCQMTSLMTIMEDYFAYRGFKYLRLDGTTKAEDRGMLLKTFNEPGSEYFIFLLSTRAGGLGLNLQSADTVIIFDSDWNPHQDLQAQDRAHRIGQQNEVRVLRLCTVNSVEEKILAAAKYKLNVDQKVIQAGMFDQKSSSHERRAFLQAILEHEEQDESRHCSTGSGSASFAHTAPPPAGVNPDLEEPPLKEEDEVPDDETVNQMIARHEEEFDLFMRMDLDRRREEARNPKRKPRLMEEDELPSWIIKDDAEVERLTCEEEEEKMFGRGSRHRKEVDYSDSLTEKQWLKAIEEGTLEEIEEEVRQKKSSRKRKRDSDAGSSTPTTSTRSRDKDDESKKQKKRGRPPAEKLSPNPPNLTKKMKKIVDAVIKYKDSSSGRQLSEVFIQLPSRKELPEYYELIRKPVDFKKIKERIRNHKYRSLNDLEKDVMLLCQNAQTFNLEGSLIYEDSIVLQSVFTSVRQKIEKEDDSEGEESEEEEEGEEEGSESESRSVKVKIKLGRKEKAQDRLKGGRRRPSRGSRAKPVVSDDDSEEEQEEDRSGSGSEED

Chain of BRM (P51531 whole entry): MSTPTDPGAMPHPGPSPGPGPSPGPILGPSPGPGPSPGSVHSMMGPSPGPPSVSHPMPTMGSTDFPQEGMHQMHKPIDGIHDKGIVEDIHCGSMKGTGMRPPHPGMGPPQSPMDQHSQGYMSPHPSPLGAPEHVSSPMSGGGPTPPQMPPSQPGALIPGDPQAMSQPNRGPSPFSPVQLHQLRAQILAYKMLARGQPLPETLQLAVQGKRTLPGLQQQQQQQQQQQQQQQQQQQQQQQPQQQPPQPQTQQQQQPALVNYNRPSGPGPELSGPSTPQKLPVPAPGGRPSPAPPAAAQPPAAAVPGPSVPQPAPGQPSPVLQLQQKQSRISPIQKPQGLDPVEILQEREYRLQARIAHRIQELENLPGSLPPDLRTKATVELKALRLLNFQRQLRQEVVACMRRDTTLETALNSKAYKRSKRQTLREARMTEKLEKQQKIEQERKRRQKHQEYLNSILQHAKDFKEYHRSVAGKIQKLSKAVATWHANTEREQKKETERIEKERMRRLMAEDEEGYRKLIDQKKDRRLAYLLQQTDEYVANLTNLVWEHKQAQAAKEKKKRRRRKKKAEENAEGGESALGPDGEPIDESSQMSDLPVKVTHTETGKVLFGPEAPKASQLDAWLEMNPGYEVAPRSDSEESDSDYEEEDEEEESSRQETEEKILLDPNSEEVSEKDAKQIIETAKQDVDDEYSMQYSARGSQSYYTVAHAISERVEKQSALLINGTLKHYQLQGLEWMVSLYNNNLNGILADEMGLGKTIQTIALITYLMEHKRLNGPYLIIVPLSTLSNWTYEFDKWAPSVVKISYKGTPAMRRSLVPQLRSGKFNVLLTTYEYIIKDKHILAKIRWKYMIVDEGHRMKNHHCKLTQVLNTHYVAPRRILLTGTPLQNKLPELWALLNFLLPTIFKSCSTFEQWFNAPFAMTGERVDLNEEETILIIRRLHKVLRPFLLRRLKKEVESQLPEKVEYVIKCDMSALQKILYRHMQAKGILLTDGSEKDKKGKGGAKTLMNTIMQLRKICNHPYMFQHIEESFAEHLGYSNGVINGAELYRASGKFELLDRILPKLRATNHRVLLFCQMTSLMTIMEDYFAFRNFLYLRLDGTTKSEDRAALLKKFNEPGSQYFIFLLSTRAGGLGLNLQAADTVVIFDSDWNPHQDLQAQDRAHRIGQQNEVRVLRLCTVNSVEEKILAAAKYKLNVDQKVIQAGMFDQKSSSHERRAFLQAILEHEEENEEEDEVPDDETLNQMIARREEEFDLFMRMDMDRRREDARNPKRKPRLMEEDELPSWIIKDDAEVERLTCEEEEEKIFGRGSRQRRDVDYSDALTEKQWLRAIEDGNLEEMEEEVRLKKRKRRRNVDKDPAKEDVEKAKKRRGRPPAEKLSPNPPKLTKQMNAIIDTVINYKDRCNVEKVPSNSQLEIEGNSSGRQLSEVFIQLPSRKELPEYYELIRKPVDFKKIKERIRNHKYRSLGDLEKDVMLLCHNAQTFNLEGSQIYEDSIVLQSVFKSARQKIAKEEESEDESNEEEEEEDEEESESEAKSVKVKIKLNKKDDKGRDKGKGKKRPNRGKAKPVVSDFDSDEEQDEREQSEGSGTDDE

SMILES: C[C@@]1(C#N)COCc2ccc(C(=O)NCc3cc4cc(-c5cncc(C6CC6)n5)cnc4cn3)cc21 [Compound 342]
BRM Max % Inhibition (BRM): 97%
IC50 (BRM): < 0.1 µM
IC50 (BRG-1): 500 to 1000 nM
Emax (BRG-1): 80%

SMILES: COc1nn(C)cc1-c1ccc2cnc(CNC(=O)c3ccc4c(c3)[C@](C)(F)COC4)cc2n1 [Compound 343]
BRM Max % Inhibition (BRM): 101%
IC50 (BRM): < 0.1 µM
IC50 (BRG-1): 500 to 1000 nM
Emax (BRG-1): 78%

SMILES: COc1cncc(-c2nc3cc(CNC(=O)c4ccc5c(c4)[C@](C)(C#N)COC5)ncc3s2)n1 [Compound 344]
BRM Max % Inhibition (BRM): 94%
IC50 (BRM): 0.1 to 0.5 µM
IC50 (BRG-1): 500 to 1000 nM
Emax (BRG-1): 57%

SMILES: Cn1ccc2ncc(-c3ccc4cnc(CNC(=O)c5ccc6c(c5)[C@](C)(C#N)COC6)cc4n3)nc21 [Compound 346]
BRM Max % Inhibition (BRM): 102%
IC50 (BRM): < 0.1 µM
IC50 (BRG-1): < 100 nM
Emax (BRG-1): 94%

SMILES: C[C@@]1(F)COCc2ccc(C(=O)NCc3cc4cc(-c5cccc(N6CCC6)n5)cnc4cn3)cc21 [Compound 347]
BRM Max % Inhibition (BRM): 100%
IC50 (BRM): < 0.1 µM
IC50 (BRG-1): 100 to 500 nM
Emax (BRG-1): 79%

SMILES: COc1cncc(-c2ccc3nnc(CNC(=O)c4ccc5c(c4)[C@](C)(C#N)COC5)cc3c2)n1 [Compound 349]
BRM Max % Inhibition (BRM): 100%
IC50 (BRM): < 0.1 µM
IC50 (BRG-1): 100 to 500 nM
Emax (BRG-1): 87%

SMILES: C[C@@]1(C#N)COCc2ccc(C(=O)NCc3cc4nc(N5CCCN(C6CCC6)C5=O)ccc4cn3)cc21 [Compound 350]
BRM Max % Inhibition (BRM): 96%
IC50 (BRM): 0.1 to 0.5 µM
IC50 (BRG-1): > 1000 nM
Emax (BRG-1): 54%

SMILES: C[C@@]1(C#N)COCc2ccc(C(=O)NCc3cc4cc(-c5cccc(N6CCC6)n5)ccc4nn3)cc21 [Compound 351]
BRM Max % Inhibition (BRM): 101%
IC50 (BRM): < 0.1 µM
IC50 (BRG-1): 100 to 500 nM
Emax (BRG-1): 95%

SMILES: O=C(NCc1cc2nc(-c3cncc(N4CCC4)n3)ccc2cn1)c1cc(F)c2c(c1)[C@@](F)(C(F)F)COC2 [Compound 352]
BRM Max % Inhibition (BRM): 99%
IC50 (BRM): < 0.1 µM
IC50 (BRG-1): 100 to 500 nM
Emax (BRG-1): 89%

SMILES: COc1ncccc1-c1nc2cc(CNC(=O)c3ccc4c(c3)[C@](C)(C#N)COC4)ncc2s1 [Compound 354]
BRM Max % Inhibition (BRM): 79%
IC50 (BRM): 0.1 to 0.5 µM
IC50 (BRG-1): > 1000 nM
Emax (BRG-1): 39%

SMILES: C[C@@]1(C#N)COCc2ccc(C(=O)NCc3cc4nc(-c5cncc(C(F)F)n5)ccc4cn3)cc21 [Compound 355]
BRM Max % Inhibition (BRM): 93%
IC50 (BRM): 0.1 to 0.5 µM
IC50 (BRG-1): 500 to 1000 nM
Emax (BRG-1): 74%

SMILES: C[C@@]1(C#N)COCc2ccc(C(=O)NCc3cc4cc(-c5cncc(N6CCC6)n5)ccc4nn3)cc21 [Compound 356]
BRM Max % Inhibition (BRM): 97%
IC50 (BRM): < 0.1 µM
IC50 (BRG-1): 100 to 500 nM
Emax (BRG-1): 95%

SMILES: C[C@@]1(C#N)COCc2ccc(C(=O)NCc3cc4nc(-c5ccnc(C(F)F)n5)ccc4cn3)cc21 [Compound 358]
BRM Max % Inhibition (BRM): 92%
IC50 (BRM): 0.1 to 0.5 µM
IC50 (BRG-1): 500 to 1000 nM
Emax (BRG-1): 67%

SMILES: C[C@@H]1CN(c2nccc(-c3ccc4cnc(CNC(=O)c5ccc6c(c5)[C@](C)(C#N)COC6)cc4n3)n2)CCO1 [Compound 362]
BRM Max % Inhibition (BRM): 99%
IC50 (BRM): < 0.1 µM
IC50 (BRG-1): > 1000 nM
Emax (BRG-1): 98%

The next lines start with the values.

BRM Max % Inhibition (BRM): 81%
IC50 (BRM): 0.1 to 0.5 µM
IC50 (BRG-1): > 1000 nM
Emax (BRG-1): 25%
SMILES: COC(=O)N1CCC=C(c2ccc3cnc(CNC(=O)c4ccc5c(c4)[C@](C)(F)COC5)cc3n2)C1 [Compound 345]

BRM Max % Inhibition (BRM): 99%
IC50 (BRM): < 0.1 µM
IC50 (BRG-1): 500 to 1000 nM
Emax (BRG-1): 72%
SMILES: C[C@@]1(C#N)COCc2ccc(C(=O)NCc3cc4nc(-c5ccnc(N6CCC6)n5)sc4cn3)cc21 [Compound 348]

BRM Max % Inhibition (BRM): 93%
IC50 (BRM): < 0.1 µM
IC50 (BRG-1): 100 to 500 nM
Emax (BRG-1): 82%
SMILES: C[C@@]1(C#N)COCc2ccc(C(=O)NCc3cc4nc(-c5cncc(N6CCC6)n5)sc4cn3)cc21 [Compound 353]

BRM Max % Inhibition (BRM): 97%
IC50 (BRM): < 0.1 µM
IC50 (BRG-1): 100 to 500 nM
Emax (BRG-1): 87%
SMILES: COc1ncccc1-c1ccc2nnc(CNC(=O)c3ccc4c(c3)[C@](C)(C#N)COC4)cc2c1 [Compound 357]

BRM Max % Inhibition (BRM): 89%
IC50 (BRM): 0.1 to 0.5 µM
IC50 (BRG-1): > 1000 nM
Emax (BRG-1): 39%
SMILES: CN1CC(c2cccc(-c3ccc4cnc(CNC(=O)c5ccc6c(c5)[C@](C)(C#N)COC6)cc4n3)n2)C1 [Compound 359]

BRM Max % Inhibition (BRM): 99%
IC50 (BRM): < 0.1 µM
IC50 (BRG-1): > 1000 nM
Emax (BRG-1): 99%
SMILES: CN(C)c1cccc(-c2ccc3cnc(CNC(=O)c4ccc5c(c4)[C@](C)(C#N)COC5)cc3n2)n1 [Compound 360]

BRM Max % Inhibition (BRM): 98%
IC50 (BRM): < 0.1 µM
IC50 (BRG-1): > 1000 nM
Emax (BRG-1): 98%
SMILES: C[C@@]1(C#N)COCc2ccc(C(=O)NCc3cc4nc(-c5cccc(N6CCCC6)n5)ccc4cn3)cc21 [Compound 361]
